Laboratory results published in patent publication US20200128823A1, “ALGICIDAL, ALGISTATIC, HERBICIDAL AND HERBISTATIC TREATMENT OF WATER” (priority 2017, published 2020).
Values after ≈ are worked out from the molar mass of the structure shown. Read-outs that look alike come from different tables or passages of the source.

Tests used:
[1] = cited from earlier work
[2] = Previous experiments: dissolution in water of a composition of gallic acid alone; assay type: physicochemical; details: composition composed only of gallic acid, no excipient
Source text: In order to avoid this problem, excipients of different nature but without algicidal, algistatic, herbicidal or herbistatic effect are preferably added. The excipients are desirable to allow a rapid descent on the bottom of the various conditioning, the dissolution of the active substance or optionally of the active substances and secondly to create a stratum of a density greater than that of the water by a thickening action.

In the case of `O=c1c(O)c(-c2ccc(O)c(O)c2)oc2cc(O)cc(O)c12` [Quercetin, 2-(3,4-dihydroxyphenyl)-3,5,7-trihydroxy-4H-chromen-4-one], the Solubility ([1]; water) is listed as 0.06 mg/mL (≈ 0.199 mM).

For `Oc1ccc(/C=C/c2cc(O)cc(O)c2)cc1` [Resveratrol, 5-[(E)-2-(4-hydroxyphenyl)-ethenyl] benzene-1,3-diol], the Solubility ([1]; DMSO) is given as roughly 16 mg/mL (≈ 70.1 mM), the Solubility ([1]; ethanol) is given as 50 mg/mL (≈ 219 mM) and the Solubility ([1]; water) is given as roughly 0.03 mg/mL (≈ 0.131 mM).

In the case of `Oc1cccc(O)c1O` [Pyrogallic Acid, pyrogallol], the Solubility in water ([1]; at 20° C.) is listed as 588.00 g/L (≈ 4660 mM).

For `O.O=C(O)c1cc(O)c(O)c(O)c1` [Gallic Acid Monohydrate], the Solubility ([1]; water at 20° C.) is listed as 15 mg/mL.

In the case of `O=c1oc2c(O)c(O)cc3c(=O)oc4c(O)c(O)cc1c4c23` [Ellagic Acid, 2,3,7,8-Tetrahydroxy(1)benzopyrano (5,4,3-cde)-(1)benzopyran-5,10-dione], the Solubility ([1]; at 21° C.) is listed as less than 1 mg/mL.

In the case of `O=C(O)/C=C/c1ccc(O)c(O)c1` [Caffeic Acid, (E) 3-(3,4-dihydroxyphenyl)prop-2-enoic acid], the “Solubility in water (in words)” value ([1]; water) is given as “poorly soluble in water”.

In the case of `O=C(O)c1cc(O)c(O)c(O)c1` [Non-Hydrated Gallic Acid, 3,4,5-trihydroxybenzoic acid], the Dissolution in water [2] is reported as “does not dissolve or is very difficult to dissolve in water”.
